# What was measured:
# [1] = target: DUSP3 (Homo sapiens, UniProt P51452); experiment: DUSP3 phosphatase inhibition assay; assay type: biochemical
# [2] = target: LAR (Homo sapiens, UniProt P10586); experiment: PTP selectivity profiling; assay type: biochemical
# [3] = target: T1, TCPTP (Homo sapiens, UniProt P17706); experiment: PTP selectivity profiling; assay type: biochemical
# T1 sequence (P17706 1-415): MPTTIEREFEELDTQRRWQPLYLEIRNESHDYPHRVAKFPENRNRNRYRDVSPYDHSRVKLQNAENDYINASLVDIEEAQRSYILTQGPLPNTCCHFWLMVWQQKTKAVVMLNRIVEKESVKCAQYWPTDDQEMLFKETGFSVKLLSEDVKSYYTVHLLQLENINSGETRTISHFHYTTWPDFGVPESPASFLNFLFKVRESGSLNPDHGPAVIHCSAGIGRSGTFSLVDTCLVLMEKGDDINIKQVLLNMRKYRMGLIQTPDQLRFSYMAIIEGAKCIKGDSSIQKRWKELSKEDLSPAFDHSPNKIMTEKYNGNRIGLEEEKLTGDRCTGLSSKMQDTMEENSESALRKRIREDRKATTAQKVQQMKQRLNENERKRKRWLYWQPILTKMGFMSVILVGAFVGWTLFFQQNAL
# [4] = target: T2, PTP1B (Homo sapiens, UniProt P18031); experiment: PTP selectivity profiling; assay type: biochemical
# T2 sequence (P18031 1-435): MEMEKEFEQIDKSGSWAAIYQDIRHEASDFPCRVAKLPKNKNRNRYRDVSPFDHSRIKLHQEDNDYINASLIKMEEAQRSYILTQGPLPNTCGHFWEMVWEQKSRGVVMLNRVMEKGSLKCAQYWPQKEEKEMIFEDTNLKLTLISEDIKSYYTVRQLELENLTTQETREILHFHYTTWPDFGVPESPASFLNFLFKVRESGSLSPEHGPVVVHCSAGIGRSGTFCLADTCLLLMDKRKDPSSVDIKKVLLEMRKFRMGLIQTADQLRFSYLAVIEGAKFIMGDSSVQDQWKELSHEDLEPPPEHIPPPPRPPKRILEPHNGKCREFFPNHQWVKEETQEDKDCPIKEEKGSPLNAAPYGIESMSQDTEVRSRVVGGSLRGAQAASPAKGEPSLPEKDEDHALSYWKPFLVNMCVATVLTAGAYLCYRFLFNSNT
# [5] = target: T3, STEP (Homo sapiens, UniProt P54829); experiment: PTP selectivity profiling; assay type: biochemical
# T3 sequence (P54829 1-565): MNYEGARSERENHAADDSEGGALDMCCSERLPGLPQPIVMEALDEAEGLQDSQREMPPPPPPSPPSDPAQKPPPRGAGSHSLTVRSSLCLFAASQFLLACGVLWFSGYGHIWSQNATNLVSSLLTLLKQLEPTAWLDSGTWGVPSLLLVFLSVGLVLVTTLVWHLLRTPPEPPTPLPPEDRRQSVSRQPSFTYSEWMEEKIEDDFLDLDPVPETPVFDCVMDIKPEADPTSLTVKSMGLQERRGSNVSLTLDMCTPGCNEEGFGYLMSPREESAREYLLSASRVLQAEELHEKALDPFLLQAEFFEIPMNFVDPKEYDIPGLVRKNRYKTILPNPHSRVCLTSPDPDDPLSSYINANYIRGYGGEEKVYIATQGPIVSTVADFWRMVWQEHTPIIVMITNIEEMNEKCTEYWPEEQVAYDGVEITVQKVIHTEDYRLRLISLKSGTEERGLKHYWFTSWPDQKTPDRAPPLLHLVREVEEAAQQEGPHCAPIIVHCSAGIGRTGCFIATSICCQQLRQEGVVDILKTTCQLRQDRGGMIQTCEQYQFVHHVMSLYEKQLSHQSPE
# [6] = tested on: DUSP3-deficient platelets; experiment: Platelet aggregation in washed platelets from Dusp3-KO mice; details: Dusp3-KO mouse washed platelets, 3.7 μM, pre-incubated 30 min
# [7] = target: T4, DUSP6 (Homo sapiens, UniProt Q16828); experiment: PTP selectivity profiling; assay type: biochemical
# T4 sequence (Q16828 1-381): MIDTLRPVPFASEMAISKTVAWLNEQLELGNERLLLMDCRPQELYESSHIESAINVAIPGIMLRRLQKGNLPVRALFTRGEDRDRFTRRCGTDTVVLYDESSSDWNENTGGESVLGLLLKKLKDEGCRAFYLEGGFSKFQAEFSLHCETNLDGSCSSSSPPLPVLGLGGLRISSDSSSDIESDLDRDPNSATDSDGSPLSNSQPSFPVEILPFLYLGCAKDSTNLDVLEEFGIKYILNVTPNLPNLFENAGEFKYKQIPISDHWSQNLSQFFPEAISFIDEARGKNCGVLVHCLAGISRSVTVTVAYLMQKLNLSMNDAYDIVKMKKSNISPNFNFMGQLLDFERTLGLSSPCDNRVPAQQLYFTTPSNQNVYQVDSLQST
# [8] = target: T5, DUSP22 (Homo sapiens, UniProt Q9NRW4); experiment: PTP selectivity profiling; assay type: biochemical
# T5 sequence (Q9NRW4 1-184): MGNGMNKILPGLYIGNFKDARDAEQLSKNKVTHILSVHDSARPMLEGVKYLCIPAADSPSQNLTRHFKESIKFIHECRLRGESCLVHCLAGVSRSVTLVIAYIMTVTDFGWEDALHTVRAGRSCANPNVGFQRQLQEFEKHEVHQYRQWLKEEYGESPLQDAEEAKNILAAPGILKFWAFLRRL
# [9] = target: T6, HePTP (Homo sapiens, UniProt P35236); experiment: PTP selectivity profiling; assay type: biochemical
# T6 sequence (P35236 1-360): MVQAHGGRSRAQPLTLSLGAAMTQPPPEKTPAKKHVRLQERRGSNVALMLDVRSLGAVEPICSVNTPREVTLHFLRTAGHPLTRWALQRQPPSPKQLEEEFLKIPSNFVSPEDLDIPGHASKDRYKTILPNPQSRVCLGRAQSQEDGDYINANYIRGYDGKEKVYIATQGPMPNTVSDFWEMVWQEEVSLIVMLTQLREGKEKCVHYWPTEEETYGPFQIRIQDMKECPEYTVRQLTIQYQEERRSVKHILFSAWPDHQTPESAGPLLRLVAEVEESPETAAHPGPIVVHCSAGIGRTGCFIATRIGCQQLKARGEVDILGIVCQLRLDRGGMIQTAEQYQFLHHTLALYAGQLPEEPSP
# [10] = tested on: human platelets; assay type: cell-based
# [11] = tested on: PTP-SL; experiment: PTP selectivity profiling; assay type: biochemical
# [12] = target: T7, CD45 (Homo sapiens, UniProt P08575); experiment: PTP selectivity profiling; assay type: biochemical
# T7 sequence (P08575 26-1306): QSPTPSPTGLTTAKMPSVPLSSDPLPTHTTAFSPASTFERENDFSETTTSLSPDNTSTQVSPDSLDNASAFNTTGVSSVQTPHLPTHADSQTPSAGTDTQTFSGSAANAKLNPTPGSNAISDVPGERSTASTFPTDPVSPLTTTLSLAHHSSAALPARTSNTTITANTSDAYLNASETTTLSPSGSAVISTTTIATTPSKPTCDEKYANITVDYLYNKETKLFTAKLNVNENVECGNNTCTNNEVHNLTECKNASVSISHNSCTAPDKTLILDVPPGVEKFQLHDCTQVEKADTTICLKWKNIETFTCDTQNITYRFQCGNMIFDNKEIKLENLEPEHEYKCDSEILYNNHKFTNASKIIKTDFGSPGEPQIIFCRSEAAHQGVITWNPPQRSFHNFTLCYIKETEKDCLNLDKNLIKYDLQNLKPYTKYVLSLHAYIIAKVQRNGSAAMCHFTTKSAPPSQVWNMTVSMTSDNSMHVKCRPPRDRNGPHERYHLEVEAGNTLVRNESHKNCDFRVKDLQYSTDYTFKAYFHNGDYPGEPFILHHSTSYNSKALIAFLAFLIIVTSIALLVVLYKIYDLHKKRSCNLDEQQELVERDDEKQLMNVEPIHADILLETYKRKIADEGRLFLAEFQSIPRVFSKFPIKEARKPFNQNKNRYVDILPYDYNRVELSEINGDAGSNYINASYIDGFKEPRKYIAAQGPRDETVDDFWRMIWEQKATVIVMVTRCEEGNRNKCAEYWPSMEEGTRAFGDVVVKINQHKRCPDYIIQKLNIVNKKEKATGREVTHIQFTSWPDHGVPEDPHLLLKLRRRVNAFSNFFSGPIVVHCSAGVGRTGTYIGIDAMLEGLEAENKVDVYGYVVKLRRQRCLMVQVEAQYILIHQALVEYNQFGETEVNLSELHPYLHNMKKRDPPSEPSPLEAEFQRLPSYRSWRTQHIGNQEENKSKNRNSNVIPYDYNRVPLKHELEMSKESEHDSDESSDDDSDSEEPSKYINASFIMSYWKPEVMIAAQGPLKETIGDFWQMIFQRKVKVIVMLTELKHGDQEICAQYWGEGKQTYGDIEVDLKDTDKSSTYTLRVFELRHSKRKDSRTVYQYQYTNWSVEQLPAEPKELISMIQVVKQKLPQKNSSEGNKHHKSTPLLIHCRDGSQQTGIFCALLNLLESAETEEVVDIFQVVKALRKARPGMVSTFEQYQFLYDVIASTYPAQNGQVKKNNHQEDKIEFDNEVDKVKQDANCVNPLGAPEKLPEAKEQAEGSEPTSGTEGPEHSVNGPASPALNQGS
# [13] = target: T8, LYP (Homo sapiens, UniProt Q9Y2R2); experiment: PTP selectivity profiling; assay type: biochemical
# T8 sequence (Q9Y2R2 1-807): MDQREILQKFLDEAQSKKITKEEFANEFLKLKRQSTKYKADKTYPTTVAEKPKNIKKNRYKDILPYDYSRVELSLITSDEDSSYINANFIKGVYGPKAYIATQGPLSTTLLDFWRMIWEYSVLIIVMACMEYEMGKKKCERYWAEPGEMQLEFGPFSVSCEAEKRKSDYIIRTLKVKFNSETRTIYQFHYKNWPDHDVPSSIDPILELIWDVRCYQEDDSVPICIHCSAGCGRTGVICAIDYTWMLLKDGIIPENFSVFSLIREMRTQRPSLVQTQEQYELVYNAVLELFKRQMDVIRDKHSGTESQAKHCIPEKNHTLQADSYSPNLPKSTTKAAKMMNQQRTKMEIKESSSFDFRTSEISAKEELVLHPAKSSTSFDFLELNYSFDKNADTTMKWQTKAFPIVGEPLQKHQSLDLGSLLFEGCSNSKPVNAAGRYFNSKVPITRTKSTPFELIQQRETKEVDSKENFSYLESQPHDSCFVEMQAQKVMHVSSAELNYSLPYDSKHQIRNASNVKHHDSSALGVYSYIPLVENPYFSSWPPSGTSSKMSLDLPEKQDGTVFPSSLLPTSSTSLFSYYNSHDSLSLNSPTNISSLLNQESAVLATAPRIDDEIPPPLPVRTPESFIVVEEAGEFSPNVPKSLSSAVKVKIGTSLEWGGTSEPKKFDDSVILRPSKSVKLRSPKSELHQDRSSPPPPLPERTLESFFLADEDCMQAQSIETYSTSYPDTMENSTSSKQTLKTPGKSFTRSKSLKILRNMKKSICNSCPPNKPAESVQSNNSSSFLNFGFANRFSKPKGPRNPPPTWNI
# [14] = DUSP3, HTS hits, text (Supplemental Table S2)
# Chain of DUSP3 (P51452 whole entry): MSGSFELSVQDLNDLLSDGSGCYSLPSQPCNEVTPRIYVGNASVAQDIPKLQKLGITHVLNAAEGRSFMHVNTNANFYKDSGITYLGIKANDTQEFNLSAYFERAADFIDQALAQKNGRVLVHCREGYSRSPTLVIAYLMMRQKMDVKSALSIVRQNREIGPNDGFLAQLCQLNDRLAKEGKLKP
# Chain of LAR (P10586 30-1907, species assumed): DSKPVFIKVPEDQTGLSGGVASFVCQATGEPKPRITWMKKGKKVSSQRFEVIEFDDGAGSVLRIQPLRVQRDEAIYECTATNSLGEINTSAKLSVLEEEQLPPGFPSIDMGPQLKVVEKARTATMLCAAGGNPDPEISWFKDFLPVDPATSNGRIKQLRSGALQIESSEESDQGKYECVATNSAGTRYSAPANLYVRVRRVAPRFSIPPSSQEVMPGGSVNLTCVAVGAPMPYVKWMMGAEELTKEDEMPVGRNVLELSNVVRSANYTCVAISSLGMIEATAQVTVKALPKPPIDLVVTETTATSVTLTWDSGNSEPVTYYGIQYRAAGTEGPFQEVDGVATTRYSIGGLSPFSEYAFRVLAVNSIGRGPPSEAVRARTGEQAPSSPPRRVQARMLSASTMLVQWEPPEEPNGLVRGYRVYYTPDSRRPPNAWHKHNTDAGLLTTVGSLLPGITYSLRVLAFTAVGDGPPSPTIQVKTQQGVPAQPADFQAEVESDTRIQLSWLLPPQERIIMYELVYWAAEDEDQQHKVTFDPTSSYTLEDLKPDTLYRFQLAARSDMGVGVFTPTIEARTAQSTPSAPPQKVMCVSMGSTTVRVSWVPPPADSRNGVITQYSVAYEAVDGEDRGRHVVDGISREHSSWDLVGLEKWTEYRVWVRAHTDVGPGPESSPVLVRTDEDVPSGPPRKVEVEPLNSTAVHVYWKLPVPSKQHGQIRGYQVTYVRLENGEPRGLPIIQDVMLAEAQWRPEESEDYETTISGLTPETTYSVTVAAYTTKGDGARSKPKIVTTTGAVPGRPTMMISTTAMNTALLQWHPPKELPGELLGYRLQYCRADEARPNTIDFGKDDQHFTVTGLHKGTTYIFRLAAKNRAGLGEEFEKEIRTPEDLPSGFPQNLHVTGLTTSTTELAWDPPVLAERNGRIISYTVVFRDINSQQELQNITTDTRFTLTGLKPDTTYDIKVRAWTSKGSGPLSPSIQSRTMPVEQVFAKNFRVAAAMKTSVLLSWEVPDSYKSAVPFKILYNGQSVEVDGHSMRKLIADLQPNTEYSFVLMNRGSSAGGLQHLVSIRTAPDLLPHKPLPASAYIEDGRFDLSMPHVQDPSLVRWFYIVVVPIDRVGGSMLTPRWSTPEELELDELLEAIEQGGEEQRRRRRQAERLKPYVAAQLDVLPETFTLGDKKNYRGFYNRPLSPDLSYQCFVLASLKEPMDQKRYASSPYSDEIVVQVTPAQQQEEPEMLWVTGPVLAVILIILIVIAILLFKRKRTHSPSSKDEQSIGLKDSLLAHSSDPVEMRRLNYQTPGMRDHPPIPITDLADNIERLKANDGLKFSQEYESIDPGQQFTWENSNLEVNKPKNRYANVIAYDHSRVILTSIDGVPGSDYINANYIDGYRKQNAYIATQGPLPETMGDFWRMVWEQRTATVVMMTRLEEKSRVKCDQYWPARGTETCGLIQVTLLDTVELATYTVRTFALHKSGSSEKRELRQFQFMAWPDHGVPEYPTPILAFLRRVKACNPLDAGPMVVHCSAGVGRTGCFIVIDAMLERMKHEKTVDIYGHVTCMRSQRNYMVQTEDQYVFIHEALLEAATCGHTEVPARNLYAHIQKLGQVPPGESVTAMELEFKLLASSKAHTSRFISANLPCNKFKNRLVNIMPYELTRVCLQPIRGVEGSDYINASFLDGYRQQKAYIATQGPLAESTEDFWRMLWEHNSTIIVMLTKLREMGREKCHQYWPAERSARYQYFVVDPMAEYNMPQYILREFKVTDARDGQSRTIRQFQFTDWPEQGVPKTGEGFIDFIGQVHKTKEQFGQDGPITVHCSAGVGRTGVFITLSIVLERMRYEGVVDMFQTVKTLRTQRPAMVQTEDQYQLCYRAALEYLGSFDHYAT
compound,measurement,setting,value
COc1cc(C(=S)N2CCCCC2)ccc1O [MLS-0103602],IC50,[1]; [14],0.37 µM
COc1ccc(-c2nnc(Nc3nc4c(OC)cccc4s3)o2)cc1 [MLS-0049585],IC50,[1]; [14],2.68 µM
COc1ccc(-c2nnc(Nc3nc4c(F)cccc4s3)o2)cc1 [MLS-0437605],IC50,[2],> 100 µM
same,IC50,[3],55 µM
same,IC50,[4],> 100 µM
same,IC50,[5],> 100 µM
same,Effect on aggregation of DUSP3-deficient platelets,[6],only minimally affected aggregation
same,IC50,[7],> 100 µM
same,selectivity for DUSP3 over DUSP22,[8]; DUSP3 over DUSP22,7 fold
same,IC50,[8]; DUSP22,26 µM
same,IC50,[9],38 µM
same,IC50,[1]; DUSP3,3.7 µM
same,Tyrosine phosphorylation of immunoprecipitated Syk and PLCγ2,"[10]; human platelets, CRP- or rhodocytin-activated",reduced
same,Global tyrosine phosphorylation (pY) of ~70-kDa band,[10]; total lysates of human platelets after stimulation with CRP or rhodocytin,caused a decrease in pY
same,IC50,[11],13 µM
same,IC50,[12],> 100 µM
same,IC50,[13],49 µM
